Results taken from ChEMBL document CHEMBL3507680, “University of Dundee, Gates Library screen for HepG2 cell viability”.

Test: Human HepG2 cell viability assay in 384 well format
Format: toxicity, cell-based
Parameters: dose 125 nL, time 70.5 hour; concentration not given beside the values
Settings: HepG2 cells, read-out: Inhibition

| SMILES | cytotoxicity at 70.5 h |
| --- | --- |
| CN(C)C(=O)c1cncnc1-c1ccc(CNC(=O)C2CC2)cc1 | -11.4% |
| COc1ccc(CN2C[C@@H](O)[C@](O)(CNC(=O)c3ccccn3)C2)cc1 | -7.06% |
| CN1CCN(c2ncnc3c2CCN(Cc2nccn2C)CC3)CC1 | 6.69% |
| Cc1ccc(S(=O)(=O)N2CCOc3ccccc32)cc1C(N)=O | 14% |
| CCS(=O)(=O)N1C[C@@H]2COC[C@@H](Cc3nc(C)no3)[C@@H]2C1 | -2.03% |
| Cc1cnn(C2CCCN(C(=O)CCCOc3cccc(F)c3)C2)c1 (centres undefined) | 0.97% |
| CCOCC(=O)NCCc1nc(C2CC2)cc(C(F)(F)F)n1 | -4.83% |
| CCN(c1ccc(C(=O)NCCN2CCOCC2)cc1)S(=O)(=O)CC | -25.1% |
| CCN(C(=O)CN1CCCC1c1cc(C)no1)c1ccccc1C (centres undefined) | -6.07% |
| CCC(O)CN1CCN(C(=O)c2cccc3[nH]ncc23)CC1 (centres undefined) | -10.6% |
| Cc1oc(C(=O)O)cc1S(=O)(=O)Nc1ccccc1F | -11.3% |
| CCOc1cc(CNC(=O)CNC(=O)CC2CCCCC2)ccn1 | -6.29% |
| c1coc(CN2CCc3nnc(COc4cncnc4)n3CC2)c1 | -13.1% |
| O=C(COc1ccc(F)cc1)N1CCO[C@H]2[C@@H](OCC3CC3)CC[C@@H]21 | -6.33% |
| c1cncc(COC2COC3(CCN(c4cnccn4)CC3)C2)c1 (centres undefined) | 15.1% |
| CCN1CC(C(=O)NCc2ccc3c(c2)nc(C)n3C)CCC1=O (centres undefined) | -13.6% |
| Cc1cc(C(F)(F)F)nc(CCNC(C)Cn2nc(C)cc2C)n1 (centres undefined) | -16.8% |
| CCOC(=O)[C@H]1[C@@H](O)C(=O)N(C)C12CCN(S(=O)(=O)CC)CC2 | -10.3% |
| Cc1cnn(CC(C)NCc2ccc(OCC(N)=O)cc2)c1 (centres undefined) | 11.6% |
| CCc1nnsc1C(=O)NCc1nnc2n1CCC2 | -2.79% |
| COCCN(C)CCN1CC2(CCN(C3CCNCC3)CC2)OC1=O | -10.2% |
| Cc1cccc2c1nc1n2[C@@H](CNC(=O)C2CCOCC2)COC1 | -4.19% |

| SMILES | cytotoxicity at 70.5 h |
| --- | --- |
| CN(C)C(=O)c1cn[nH]c1C1(C)CCCN(Cc2ccccn2)C1 (centres undefined) | -1.05% |
| CCS(=O)(=O)CC(C)N(C)C(=O)NCCc1cccc(F)c1F (centres undefined) | -5.89% |
| NC(=O)CN1CC[C@@]2(O)CCCC[C@H]2[C@@H]1c1ccc2c(c1)OCO2 | -2.64% |
| CC(C)Cn1cnc2ccc(NC(=O)CCCn3cccn3)cc2c1=O | -2.92% |
| Cc1cnc2c(S(=O)(=O)NCC3CCOC3)cccc2c1 (centres undefined) | -10.2% |
| O=C(NCc1ccc(CN2CCCCC2)cc1)Nc1cccnc1 | -1.13% |
| CC(C)C(=O)N1CC[C@@H]2CN(Cc3ccncc3)S(=O)(=O)[C@@H]2CC1 | -3.99% |
| c1ccc2c(c1)CC(N1CCCN(Cc3cccc4nonc34)CC1)C2 | 21.6% |
| Cc1noc(C)c1CN1CC[C@H]2C[C@@H](c3ccncn3)O[C@@H]2C1 | -10.7% |
| Cc1cccc(C(=O)NCCNS(=O)(=O)c2cccs2)c1C | -5.88% |
| CN1CC(C(=O)NCCOc2ccc3c(c2)OCO3)CC1=O (centres undefined) | -1.1% |
| CCCC(C)(C)NC(=O)c1cnc(CC)s1 | -1.12% |
| Cn1c(C(F)(F)F)nn(CCNC(=O)c2ccccn2)c1=O | -7.74% |
| CN(Cc1cc2c(cc1OC(F)F)OCO2)Cc1nccn1C | -3.97% |
| CCCNC(=O)c1cccc(CNCc2csc(CC)n2)c1 | -106% |
| Cn1cc(CCCNC(=O)NCC(O)c2ccsc2)cn1 (centres undefined) | -2.64% |
| Cc1occc1CNc1ncccc1S(N)(=O)=O | -3.76% |
| COc1ccc(C)cc1NC(=O)Cn1nc(C)c(C#N)c1N | -5.55% |
| CNC(=O)NC(=O)CNC(CC(F)(F)F)c1ccc(F)cc1 (centres undefined) | 4.15% |
| CN1CCC(N(CCc2ccccc2)C(=O)c2ccc(C#N)nc2)CC1 | -3.27% |
| CC(=O)N1CCC(NC(=O)c2ccccc2-n2cnnn2)CC1 | -3.54% |
| Cc1nc(C(=O)N2CCC(Nc3cccnn3)CC2)cs1 | 28.6% |
